{"source": "ChEMBL document CHEMBL1201862", "about": "“PubChem BioAssay data set” (2004)", "assay_in_all_cases": "NCI tumour cell line growth inhibition, 48 h", "key": {"SR": {"system": "SR"}, "NCI-H522": {"system": "NCI-H522"}, "OVCAR-5": {"system": "OVCAR-5"}, "PC-3": {"system": "PC-3"}, "NCI-H23": {"system": "NCI-H23"}, "UACC-257": {"system": "UACC-257"}, "SK-MEL-28": {"system": "SK-MEL-28"}, "DU-145": {"system": "DU-145"}, "CCRF-CEM": {"system": "CCRF-CEM"}, "HCT-15": {"system": "HCT-15"}, "A498": {"system": "A498"}, "NCI-H226": {"system": "NCI-H226"}, "Hs-578T": {"system": "Hs-578T"}, "SK-MEL-5": {"system": "SK-MEL-5"}, "M14": {"system": "M14"}, "MCF7": {"system": "MCF7"}, "UACC-62": {"system": "UACC-62"}, "UO-31": {"system": "UO-31"}, "SK-OV-3": {"system": "SK-OV-3"}}, "note": "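96-well plates; 48 h exposure; 5 concentrations. Endpoints by linear interpolation between flanking doses. Not reached: highest tested concentration assigned. GI50: concentration for 50% inhibition of growth.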 Calls of active or inactive are those of the source. Cut-off read from the data, not from the text of the source: active = GI50 up to about 1.1 µM and inactive = higher."}
{"smiles": "[O-][n+]1c2ccccc2[n+]([O-])c2ccccc21", "values": [{"measurement": "GI50", "setting": "SR", "result": "13 µM (inactive)"}, {"measurement": "GI50", "setting": "NCI-H522", "result": "> 100 µM (inactive)"}, {"measurement": "GI50", "setting": "OVCAR-5", "result": "> 100 µM (inactive)"}, {"measurement": "GI50", "setting": "PC-3", "result": "> 100 µM (inactive)"}, {"measurement": "GI50", "setting": "NCI-H23", "result": "24 µM (inactive)"}, {"measurement": "GI50", "setting": "UACC-257", "result": "> 100 µM (inactive)"}, {"measurement": "GI50", "setting": "SK-MEL-28", "result": "> 100 µM (inactive)"}, {"measurement": "GI50", "setting": "DU-145", "result": "45.4 µM (inactive)"}, {"measurement": "GI50", "setting": "CCRF-CEM", "result": "4.32 µM (inactive)"}, {"measurement": "GI50", "setting": "HCT-15", "result": 68.2, "unit": "µM"}, {"measurement": "GI50", "setting": "A498", "result": "> 100 µM (inactive)"}, {"measurement": "GI50", "setting": "NCI-H226", "result": "> 100 µM (inactive)"}, {"measurement": "GI50", "setting": "Hs-578T", "result": "> 100 µM (inactive)"}, {"measurement": "GI50", "setting": "SK-MEL-5", "result": "37.5 µM (inactive)"}, {"measurement": "GI50", "setting": "M14", "result": "33.1 µM (inactive)"}, {"measurement": "GI50", "setting": "MCF7", "result": "48.1 µM (inactive)"}, {"measurement": "GI50", "setting": "UACC-62", "result": "> 100 µM (inactive)"}, {"measurement": "GI50", "setting": "UO-31", "result": "> 100 µM (inactive)"}]}
{"smiles": "CC(=O)C(=NNc1ccc(-n2c(C)nc3ccc(Br)cc3c2=O)cc1)C(C)=O", "values": [{"measurement": "GI50", "setting": "SR", "result": "> 100 µM (inactive)"}, {"measurement": "GI50", "setting": "OVCAR-5", "result": "> 100 µM (inactive)"}, {"measurement": "GI50", "setting": "PC-3", "result": "73.8 µM (inactive)"}, {"measurement": "GI50", "setting": "NCI-H23", "result": "70.8 µM (inactive)"}, {"measurement": "GI50", "setting": "UACC-257", "result": "> 100 µM (inactive)"}, {"measurement": "GI50", "setting": "SK-MEL-28", "result": "> 100 µM (inactive)"}, {"measurement": "GI50", "setting": "DU-145", "result": "93.8 µM (inactive)"}, {"measurement": "GI50", "setting": "CCRF-CEM", "result": "> 100 µM (inactive)"}, {"measurement": "GI50", "setting": "HCT-15", "result": "> 100", "unit": "µM"}, {"measurement": "GI50", "setting": "A498", "result": "> 100 µM (inactive)"}, {"measurement": "GI50", "setting": "SK-OV-3", "result": "> 100 µM (inactive)"}, {"measurement": "GI50", "setting": "NCI-H226", "result": "72.9 µM (inactive)"}, {"measurement": "GI50", "setting": "Hs-578T", "result": "26.7 µM (inactive)"}, {"measurement": "GI50", "setting": "SK-MEL-5", "result": "65.6 µM (inactive)"}, {"measurement": "GI50", "setting": "M14", "result": "> 100 µM (inactive)"}, {"measurement": "GI50", "setting": "MCF7", "result": "> 100 µM (inactive)"}, {"measurement": "GI50", "setting": "UACC-62", "result": "82.4 µM (inactive)"}, {"measurement": "GI50", "setting": "UO-31", "result": "> 100 µM (inactive)"}]}
{"smiles": "CC(C)C(/C=C/c1ccc(Cl)c(Cl)c1)=N\\NC(=O)N/N=C(/C=C/c1ccc(Cl)c(Cl)c1)C(C)C", "values": [{"measurement": "GI50", "setting": "SR", "result": "86.1 µM (inactive)"}, {"measurement": "GI50", "setting": "NCI-H522", "result": "> 100 µM (inactive)"}, {"measurement": "GI50", "setting": "OVCAR-5", "result": "> 100 µM (inactive)"}, {"measurement": "GI50", "setting": "PC-3", "result": "> 100 µM (inactive)"}, {"measurement": "GI50", "setting": "NCI-H23", "result": "> 100 µM (inactive)"}, {"measurement": "GI50", "setting": "UACC-257", "result": "> 100 µM (inactive)"}, {"measurement": "GI50", "setting": "SK-MEL-28", "result": "> 100 µM (inactive)"}, {"measurement": "GI50", "setting": "DU-145", "result": "> 100 µM (inactive)"}, {"measurement": "GI50", "setting": "CCRF-CEM", "result": "> 100 µM (inactive)"}, {"measurement": "GI50", "setting": "HCT-15", "result": "> 100", "unit": "µM"}, {"measurement": "GI50", "setting": "A498", "result": "> 100 µM (inactive)"}, {"measurement": "GI50", "setting": "SK-OV-3", "result": "> 100 µM (inactive)"}, {"measurement": "GI50", "setting": "NCI-H226", "result": "> 100 µM (inactive)"}, {"measurement": "GI50", "setting": "Hs-578T", "result": "> 100 µM (inactive)"}, {"measurement": "GI50", "setting": "SK-MEL-5", "result": "> 100 µM (inactive)"}, {"measurement": "GI50", "setting": "M14", "result": "> 100 µM (inactive)"}, {"measurement": "GI50", "setting": "MCF7", "result": "> 100 µM (inactive)"}, {"measurement": "GI50", "setting": "UACC-62", "result": "> 100 µM (inactive)"}, {"measurement": "GI50", "setting": "UO-31", "result": "> 100 µM (inactive)"}]}
{"smiles": "CCOC(=O)C1C(c2ccc3c(c2)OCO3)c2c(n[nH]c2O)CC1(O)OCC", "note": "(stereo unspecified)", "values": [{"measurement": "GI50", "setting": "SR", "result": "> 100 µM (inactive)"}, {"measurement": "GI50", "setting": "NCI-H522", "result": "> 100 µM (inactive)"}, {"measurement": "GI50", "setting": "OVCAR-5", "result": "> 100 µM (inactive)"}, {"measurement": "GI50", "setting": "PC-3", "result": "> 100 µM (inactive)"}, {"measurement": "GI50", "setting": "NCI-H23", "result": "> 100 µM (inactive)"}, {"measurement": "GI50", "setting": "UACC-257", "result": "> 100 µM (inactive)"}, {"measurement": "GI50", "setting": "SK-MEL-28", "result": "> 100 µM (inactive)"}, {"measurement": "GI50", "setting": "DU-145", "result": "> 100 µM (inactive)"}, {"measurement": "GI50", "setting": "CCRF-CEM", "result": "> 100 µM (inactive)"}, {"measurement": "GI50", "setting": "HCT-15", "result": "> 100", "unit": "µM"}, {"measurement": "GI50", "setting": "A498", "result": "> 100 µM (inactive)"}, {"measurement": "GI50", "setting": "Hs-578T", "result": "> 100 µM (inactive)"}, {"measurement": "GI50", "setting": "SK-MEL-5", "result": "> 100 µM (inactive)"}, {"measurement": "GI50", "setting": "M14", "result": "> 100 µM (inactive)"}, {"measurement": "GI50", "setting": "MCF7", "result": "> 100 µM (inactive)"}, {"measurement": "GI50", "setting": "UACC-62", "result": "> 100 µM (inactive)"}, {"measurement": "GI50", "setting": "UO-31", "result": "> 100 µM (inactive)"}]}
{"smiles": "COc1nc(SC)nc2c1C(O)n1c(nc3ccccc31)S2", "note": "(stereo unspecified)", "values": [{"measurement": "GI50", "setting": "SR", "result": "3.58 µM (inactive)"}, {"measurement": "GI50", "setting": "NCI-H522", "result": "23 µM (inactive)"}, {"measurement": "GI50", "setting": "OVCAR-5", "result": "82 µM (inactive)"}, {"measurement": "GI50", "setting": "PC-3", "result": "19.3 µM (inactive)"}, {"measurement": "GI50", "setting": "NCI-H23", "result": "19.5 µM (inactive)"}, {"measurement": "GI50", "setting": "UACC-257", "result": "59.6 µM (inactive)"}, {"measurement": "GI50", "setting": "SK-MEL-28", "result": "9.16 µM (inactive)"}, {"measurement": "GI50", "setting": "DU-145", "result": "53.7 µM (inactive)"}, {"measurement": "GI50", "setting": "CCRF-CEM", "result": "2.32 µM (inactive)"}, {"measurement": "GI50", "setting": "HCT-15", "result": 33.5, "unit": "µM"}, {"measurement": "GI50", "setting": "A498", "result": "16.3 µM (inactive)"}, {"measurement": "GI50", "setting": "SK-OV-3", "result": "22.8 µM (inactive)"}, {"measurement": "GI50", "setting": "Hs-578T", "result": "16 µM (inactive)"}, {"measurement": "GI50", "setting": "M14", "result": "60.4 µM (inactive)"}, {"measurement": "GI50", "setting": "MCF7", "result": "1.84 µM (inactive)"}, {"measurement": "GI50", "setting": "UACC-62", "result": "0.551 µM (active)"}, {"measurement": "GI50", "setting": "UO-31", "result": "3.08 µM (inactive)"}]}
{"smiles": "S=C(Nc1ccc(Cl)cc1)c1ccc(CN2CCCCC2)s1", "values": [{"measurement": "GI50", "setting": "SR", "result": "2.9 µM (inactive)"}, {"measurement": "GI50", "setting": "NCI-H522", "result": "21.9 µM (inactive)"}, {"measurement": "GI50", "setting": "OVCAR-5", "result": "1.56 µM (inactive)"}, {"measurement": "GI50", "setting": "PC-3", "result": "18.5 µM (inactive)"}, {"measurement": "GI50", "setting": "NCI-H23", "result": "3.35 µM (inactive)"}, {"measurement": "GI50", "setting": "UACC-257", "result": "10.6 µM (inactive)"}, {"measurement": "GI50", "setting": "SK-MEL-28", "result": "4.24 µM (inactive)"}, {"measurement": "GI50", "setting": "DU-145", "result": "19.8 µM (inactive)"}, {"measurement": "GI50", "setting": "CCRF-CEM", "result": "3.17 µM (inactive)"}, {"measurement": "GI50", "setting": "HCT-15", "result": 4.72, "unit": "µM"}, {"measurement": "GI50", "setting": "A498", "result": "10.8 µM (inactive)"}, {"measurement": "GI50", "setting": "Hs-578T", "result": "37.9 µM (inactive)"}, {"measurement": "GI50", "setting": "SK-MEL-5", "result": "3.08 µM (inactive)"}, {"measurement": "GI50", "setting": "M14", "result": "4.09 µM (inactive)"}, {"measurement": "GI50", "setting": "MCF7", "result": "13.9 µM (inactive)"}, {"measurement": "GI50", "setting": "UACC-62", "result": "5.22 µM (inactive)"}, {"measurement": "GI50", "setting": "UO-31", "result": "7.8 µM (inactive)"}]}
